According to US4472386A, “5-Fluoro-(β-uridine or 2'-deoxy-β-uridine) derivatives, a process for producing the same and a carcinostatic agent containing the same” (Toyama Chemical Co., Ltd., priority 1978, dated 1984):

Assays:
[1] = Acute toxicity test (b), oral LD50 (Table 4); conditions: mouse, in vivo; oral, 3 weeks, Van der Waerden method
Procedure: (b) The test compound was suspended in 0.25% CMC solution and administered orally to SLC-ddY mice (5 weeks old, male, 6 mice per group). The number of dead mice was counted over the subsequent 3 weeks. LD50 value was calculated according to the method of Van der Waerden.

[2] = system: Ehrlich ascites carcinoma; test: Inhibition of Ehrlich solid tumor in mice, oral administration starting six days after inoculation (Table 2); format: in vivo, ddY mice
Procedure: (§1) 1. Experiment on the inhibition of Ehrlich solid tumor
Ehrlich ascites carcinoma was subcutaneously inoculated into the inguinal region of ddY mice (5 weeks old, male, 8 mice per group) with 3×10^6 cells per mouse. Six days after the inoculation, a test drug dissolved or suspended in 0.5% CMC solution was administered orally to the test group successively once daily for 10 days, while the same quantity as above of 0.5% CMC solution was orally administered to the control group. Twenty one days after the inoculation, the tumor was excised and weighed, from which the average tumor weight ratio between the test group and the control group (T/C) was determined.

[3] = system: Ehrlich ascites carcinoma; test: Carcinostatic test, oral, ED values (Table 5); format: in vivo, ddY mice; conditions: Mus musculus, 336 h, oral once daily for 10 days, least square method
Procedure: Ehrlich ascites carcinoma was subcutaneously inoculated into the right inguinal region of ddY mice (5 weeks old, male, 8 mice per group) with 8×10^6 cells per mouse. Twenty four hours after the inoculation,5, 10, 20 or 40 mg/kg of a test drug suspended or dissolved in polyethylene glycol was administered orally to the test group successively once daily for 10 days, while the same quantity as above of 10% polyethylene glycol was administered orally to the control group. Fourteen days after the inoculation, the tumor was excised and weighed, from which the average tumor weight ratio between the test group and the control group (T/C) was calculated. ED value was determined by the least square method.

[4] = system: Sarcoma-180 ascites tumor; test: Inhibition of Sarcoma-180 ascites tumor in mice, intravenous administration (Table 3); format: in vivo, ddY mice; conditions: 10 mg/kg i.v. once daily for 7 days
Procedure: 2. Experiment on the inhibition of Sarcoma-180 ascites tumor
Sarcoma-180 ascites tumor was subcutaneously inoculated into the right inguinal region of ddY mice (5 weeks old, male, 8 mice per group) with 3×10^6 cells per mouse. Twenty four hours after the inoculation,a test drug dissolved in 10% polyethylene glycol was administered intravenously to the test group successively once daily for 7 days, while the same quantity as above of 10% polyethylene glycol was intravenously administered to the control group. Ten days after the inoculation, the tumor was excised and weighed, from which the average tumor weight ratio between the test group and the control group (T/C) was determined.

[5] = cited from earlier work
[6] = C. Heidelberger et al. (1958); cited from earlier work
[7] = C. Heidelberger et al. (1958); cited from earlier work; remark: listed apart in the source
nucleotide-phosphorylase = conditions: G. D. Birnie (1963); cited from earlier work
[8] = system: Ehrlich ascites carcinoma; test: Inhibition of Ehrlich solid tumor in mice, intraperitoneal administration (Table 1); format: in vivo, ddY mice
Procedure: as §1
Ehrlich ascites carcinoma was subcutaneously inoculated into the right inguinal region of ddY mice (5 weeks old, male, 8 mice per group) with 3×10^6 cells per mouse.
24 Hours after the inoculation, a test drug suspended or dissolved in 5% HCO 60 (a product manufactured by Nikkol) was administered intraperitoneally successively once daily for 7 days. To the control group, the same quantity as above of 5% HCO 60 was intraperitoneally administered in the same manner. Fourteen days after the inoculation, the tumor was excised and weighed, from which the average tumor weight ratio between the test group and the control group (T/C) was determined.

[9] = 60 mg/kg orally once daily for 10 days
[10] = 40 mg/kg i.p. once daily for 7 days

SMILES: O=c1[nH]c(=O)n([C@H]2C[C@H](O)[C@@H](CO)O2)cc1F [FUDR, 5-fluoro-2'-deoxy-β-uridine, reference compound]
- LD50 at 504 h [1]: 1330 mg/kg
- Body weight change [2, 9]: -2.7 g
- No. of surviving mice/No. of total mice used [2, 9]: 8/8
- T/C (average tumor weight ratio between test group and control group) ([2]; 60 mg/kg orally once daily for 10 days from day 6, Ehrlich, day 21): 48.6%
- ED30 ([3]; read-out: ED30): 19 mg/kg
- ED40 ([3]; read-out: ED40): 24 mg/kg
- Body weight change [4]: +3.9 g
- No. of surviving mice/No. of total mice used [4]: 8/8
- T/C (average tumor weight ratio between test group and control group) ([4]; Sarcoma-180, day 10): 56.3%
- persistency in vivo [5]: lacks persistency
- excretion ([5]; in vivo): excreted rapidly
- carcinostatic activity in vitro [6]: intense carcinostatic activity in vitro
- toxicity [7]: low toxicity
- decomposition by nucleotide-phosphorylase to yield 5-fluorouracil (nucleotide-phosphorylase): readily decomposed by nucleotide-phosphorylase
- Body weight change [8, 10]: +6.5 g
- No. of surviving mice/No. of total mice used [8, 10]: 8/8
- response vs control in vivo at 40 mg/kg ([8]; Mus musculus, Ehrlich, ip, 336 h, read-out: T/C (average tumor weight ratio between test group and control group)): 47.1%
